In patent US11298412B2, “Sphingoid compounds for prophylaxis and/or therapy of coronaviridae infection” (priority 2020, dated 2022):
Entries after “also recorded” stand apart in the source; their conditions may differ.

How the values were obtained:
[1] = test system: rhinovirus strain 2 (RV2); assay: Intranasal RV2 infection of wild-type mice, Hela cell death bioassay of nasal bone; assay type: in vivo; conditions: 10 μL of 100 μM intranasal 10 min before or 1, 4, 8 hrs after infection, 10^3 PFU, sacrificed after 24 hrs
Description: Mice were infected with 10^3 PFU rhinovirus strain 2 (RV2) in 10 μL PBS. The virus was applied directly into the nose using a blunt ended, plastic coated 30 g needle, that was inserted into the nose approximately 2 mm. Sphingosine (SPH) was applied into the nose of the wild-type mice at a concentration of 100 μM solution in PBS in a volume of 10 μL. Sphingosine was applied either 10 min prior to rhinovirus infection (b.i.) or 1 hr, 4 hrs and 8 hrs after the infection (a.i.). Controls received the solvent, i.e. octylglucopyranoside (OGP) at the same concentration than used when sphingosine was applied, or were left untreated, but infected. Solutions were applied as in 3.2. Mice were sacrificed after 24 hrs, the nasal bone was removed and incubated for 4 days with Hela cells in a 24 well plate. If the nasal epithelial cells are infected, rhinovirus will be released due to the cytopathic effect of the virus and the in vivo infection can then be determined and quantified by measuring cell death of Hela cells as a bioassay. To this end, dead cells were collected, adherent cells were trypsinized, the fractions were combined, washed twice in H/S (20 mM HEPES, 132 mM NaCl, 5 mM KCl, 1 mM CaCl2), 0.7 mM MgCl2, 0.8 mM MgSO4, pH 7.4), stained with Trypan Blue (0.2% final concentration) and dead cells were counted in aliquots of 500 cells as above. […]

[2] = test system: human nasal epithelial cells; assay: Toxicity on human nasal epithelial cells; conditions: as per the Vero cell studies
RV1b = assay: Binding of sphingosine to RV1b immobilized on agarose beads, remaining sphingosine by kinase assay; parameters: species or system rhinovirus; conditions: 250 μM sphingosine in PBS pH 7.0; 4 hrs at 4° C.
Description: As a complement to the above study, RV1b (obtained from ATCC) were immobilized to agarose beads and tested for binding of sphingosine (SPH). To this end, we incubated 1 μg/ml anti-RV1b antibodies with 10^6 CFU RV1b for 1 h at 4° C. in H/S, added 50 μL agarose protein A/G beads (Santa Cruz Inc.), incubated for an additional 1 h at 4° C. and washed the immobilized precipitates 5-times in H/S. We resuspended the beads in 500 μL PBS (pH 7.0) containing 250 μM sphingosine. Samples were incubated for 4 hrs at 4° C., pelleted and aliquots of the supernatants were added to 50 mM HEPES (pH 7.4), 250 mM NaCl, 30 mM MgCl2, 0.001 units sphingosine kinase (R&D), 1 mM ATP and 10 μCi [^32P]γATP. The kinase reaction was performed for 1 hr at 30° C., stopped by addition of 20 μl 1N HCl, 800 μl CHCl3/CH3OH/1N HCl (100:200:1, v/v/v), 240 μl CHCl3 and 2 M KCl. Phases were separated, the lower phase was collected, dried, dissolved in 20 μL of CHCl3:CH3OH (1:1, v/v) and separated on Silica G60 thin layer chromatography (TLC) plates using CHCl3/CH3OH/acetic acid/H2O (90:90:15:5, v/v/v/v). The TLC plates were exposed to radiography films, spots were removed from the plates, and the incorporation of [^32P] into sphingosine measured by liquid scintillation counting. Sphingosine was determined using a standard curve of C18-SPH. […]

[3] = test system: rhinovirus strain RV14 (major strain); assay: Rhinovirus RV14 infection of Hela cells, Trypan Blue cell death; assay type: cell-based; conditions: 10 μM and 20 μM, added 10 min before or 60 min or 240 min after infection, 4 days
[4] = test system: lymphocytic choriomeningitis virus (LCMV); assay type: cell-based, LCMV strain WE
[5] = molecular target: T1, receptor-binding domain of spike protein / ACE2 (Homo sapiens, UniProt Q9BYF1); assay: Binding of Fc-ACE2 to RBD-spike immobilized on Ni-agarose, western blot; conditions: RBD immobilized on Ni2+-agarose; Fc-ACE2 with 1 μM or 2 μM sphingosine
T1 construct: purchased Abcam (Fc-ACE2); Sino Biologicals (RBD-spike) ab273687 (Fc-ACE2); MA FE2702B, #40150-R007 (as printed for RBD-spike)

recombinant ACE2 = molecular target: T2, recombinant ACE2 (Homo sapiens, UniProt Q9BYF1); assay: Binding of lipids to immobilized recombinant ACE2; conditions: sphingosine at 2 μM
T2 construct: purchased Abcam ab273687

pp-VSV-SARS-CoV-2 spike [6] = assay type: cell-based
pp-VSV-SARS-CoV-2 spike [7] = assay type: cell-based; remark: listed apart in the source
rhinovirus 2 (RV2) = assay: RV2 infection of freshly isolated human epithelial cells, Hela cytotoxicity readout; assay type: cell-based; conditions: 10 μM or 20 μM, 24 hrs
Description: (§1) 10^4 PFU of Rhinovirus 2 or 14 (RV2, RV14) were incubated with freshly isolated human epithelial cells for 24 hrs in the presence of 10 μM or 20 μM sphingosine (SPH) or the corresponding concentration of the solvent octylglucopyranoside (OGP), the cells were pelleted, supernatants completely removed, the cell pellets resuspended in PBS and added to Hela cells. Cells were incubated for 3 days and cytotoxicity as measurement for virus titers was determined. Shown is the mean±SD, n=4, *p<0.001 ANOVA.

[8] = test system: rhinovirus strain RV2 (minor strain); assay: Rhinovirus RV2 infection of Hela cells, Trypan Blue cell death; assay type: cell-based; conditions: 10 μM and 20 μM, added 10 min before or 60 min or 240 min after infection, 4 days
[9] = test system: epithelial cells of the nose; assay: Toxicity of intranasal sphingosine on nasal epithelial cells of mice, Trypan Blue; assay type: in vivo; conditions: wild-type mice; 10 μL of 10 μM or 100 μM intranasal; 8 hours or 24 hours
Description: Sphingosine was applied into the nose of wild-type mice as in 3.2. 10 μL of a 10 μM or a 100 μM sphingosine (SPH) solution was administered into the nostrils of wild-type mice. Controls received the solvent, i.e. octylglucopyranoside at the same concentration used when sphingosine was applied, or were left untreated. Mice were anesthetized prior to application of sphingosine. Mice were sacrificed after 8 hours or 24 hours, the nasal bone was removed and incubated in Trypsin solution for 10 min to release and isolate epithelial cells. Cells were washed twice in H/S (20 mM HEPES, 132 mM NaCl, 5 mM KCl, 1 mM CaCl2), 0.7 mM MgCl2, 0.8 mM MgSO4, pH 7.4), stained with Trypan Blue (0.2% final concentration) and dead cells were counted in aliquots of 500 cells. Given is the percentage of dead cells±SD from 4 independent experiments each; *p<0.05, ANOVA.

rhinovirus 14 (RV14) = assay: RV14 infection of freshly isolated human epithelial cells, Hela cytotoxicity readout; assay type: cell-based; conditions: 10 μM or 20 μM, 24 hrs
Description: as §1

T2 sequence (Q9BYF1 18-805): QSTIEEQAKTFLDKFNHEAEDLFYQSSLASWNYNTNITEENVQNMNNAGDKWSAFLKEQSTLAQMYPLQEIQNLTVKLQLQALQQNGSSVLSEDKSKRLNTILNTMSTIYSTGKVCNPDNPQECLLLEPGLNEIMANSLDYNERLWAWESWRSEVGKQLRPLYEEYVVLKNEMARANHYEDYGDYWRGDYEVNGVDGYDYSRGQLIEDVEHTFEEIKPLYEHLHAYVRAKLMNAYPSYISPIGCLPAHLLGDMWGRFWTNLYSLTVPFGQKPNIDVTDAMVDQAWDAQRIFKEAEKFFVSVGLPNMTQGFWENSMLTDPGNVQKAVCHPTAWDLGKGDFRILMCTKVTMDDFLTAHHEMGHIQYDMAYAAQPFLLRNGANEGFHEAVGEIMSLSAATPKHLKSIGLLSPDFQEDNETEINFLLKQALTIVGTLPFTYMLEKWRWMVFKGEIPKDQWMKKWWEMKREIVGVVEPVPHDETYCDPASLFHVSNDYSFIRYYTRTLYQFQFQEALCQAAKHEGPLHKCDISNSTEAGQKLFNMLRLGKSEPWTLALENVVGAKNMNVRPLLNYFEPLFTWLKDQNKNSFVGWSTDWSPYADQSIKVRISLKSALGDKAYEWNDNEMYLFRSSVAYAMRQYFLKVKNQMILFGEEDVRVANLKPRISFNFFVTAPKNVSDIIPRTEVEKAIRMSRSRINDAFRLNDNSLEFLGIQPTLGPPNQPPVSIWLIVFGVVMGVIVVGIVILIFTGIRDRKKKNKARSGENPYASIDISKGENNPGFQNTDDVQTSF
T1 sequence (Q9BYF1 18-740): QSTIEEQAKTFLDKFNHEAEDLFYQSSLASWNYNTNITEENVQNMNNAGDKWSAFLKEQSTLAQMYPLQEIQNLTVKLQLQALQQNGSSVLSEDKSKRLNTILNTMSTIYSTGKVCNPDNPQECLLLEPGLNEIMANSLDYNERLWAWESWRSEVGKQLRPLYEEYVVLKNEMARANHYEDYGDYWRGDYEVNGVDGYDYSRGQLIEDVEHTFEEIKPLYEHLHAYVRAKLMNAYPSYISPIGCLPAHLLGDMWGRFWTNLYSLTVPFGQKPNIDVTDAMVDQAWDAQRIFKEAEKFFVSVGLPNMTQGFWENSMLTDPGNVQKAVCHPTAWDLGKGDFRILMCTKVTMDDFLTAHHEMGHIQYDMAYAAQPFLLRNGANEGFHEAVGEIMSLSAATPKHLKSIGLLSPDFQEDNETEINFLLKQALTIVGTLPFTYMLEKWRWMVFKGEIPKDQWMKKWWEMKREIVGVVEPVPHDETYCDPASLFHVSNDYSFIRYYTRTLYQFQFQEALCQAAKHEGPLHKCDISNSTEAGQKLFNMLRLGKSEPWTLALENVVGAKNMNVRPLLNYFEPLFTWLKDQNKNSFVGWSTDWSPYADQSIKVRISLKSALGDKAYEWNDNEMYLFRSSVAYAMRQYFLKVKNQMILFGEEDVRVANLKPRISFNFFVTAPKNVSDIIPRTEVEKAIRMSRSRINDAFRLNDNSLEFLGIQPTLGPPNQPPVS

For CCCCCCCCCCCCC/C=C/[C@@H](O)[C@@H](N)CO [sphingosine, (2S,3R,4E)-2-amino-4-octadecene-1,3-diol], the “infection with RV2 in vivo (percentage of dead Hela cells)” value [1] was “prevented; also recorded: prevents infection by RSV2”, the “toxic effects on nasal epithelial cells” value [2] was “no toxic effects on nasal epithelial cells; also recorded: without negative effects on the cells” and the “binding of sphingosine to RV1b-coupled agarose beads (remaining sphingosine in the supernatant)” value (RV1b) was “efficiently bind sphingosine”. For the same molecule, the “infection with RV14 (percentage of dead cells)” value [3] was “prevented the infection; also recorded: prevention of RSV2 and RSV14 infection”, the “propagation of LCMV (infectious LCMV particles in the supernatant)” value [4] was “reduced propagation of LCMV; also recorded: inhibits the propagation of LCMV” and the “interaction of the receptor-binding domain of spike protein with ACE2” value [5] was “abolished the interaction of the receptor-binding domain of spike protein with ACE2”. The “binding of lipid to immobilized recombinant ACE2 (beads)” value (recombinant ACE2) was “revealed a binding of sphingosine to ACE2; also recorded: selectively couples to beads with bound recombinant ACE2; also recorded: binds the ACE2 receptor”, the “infection of human nasal epithelial cells with pp-VSV-SARS-CoV-2 spike (eGFP positive cells)” value (pp-VSV-SARS-CoV-2 spike [6]) was “prevented infection; also recorded: prevents infection of freshly isolated human nasal endothelial cells by SARS-CoV-2” and the “effect on infection of Vero epithelial cells with pp-VSV-SARS-CoV-2” value (pp-VSV-SARS-CoV-2 spike [7]) was “marked effect”. The “infection of Vero cells by SARS-CoV-2” value (pp-VSV-SARS-CoV-2 spike [7]) was “prevents infection of Vero cells by SARS-CoV-2”, the “reduction of the infection of Vero epithelial cells with pp-VSV-SARS-CoV-2” value (pp-VSV-SARS-CoV-2 spike [7]) was “more than 90%” and the “infection of human epithelial cells by RV2” value (rhinovirus 2 (RV2)) was “abrogates infection of human epithelial cells; also recorded: prevents infection of freshly isolated human nasal epithelial cells”. The “infection with RV2 (percentage of dead cells)” value [8] was “prevented the infection; also recorded: prevention of RSV2 and RSV14 infection”, the “toxic effects on nasal epithelial cells (percentage of dead cells)” value [9] was “no toxic effects on epithelial cells of the nose; also recorded: no toxic side effects” and the “infection of human epithelial cells by RV14” value (rhinovirus 14 (RV14)) was “abrogates infection of human epithelial cells; also recorded: prevents infection of freshly isolated human nasal epithelial cells”.
